Experiment: Free radical-scavenging/antioxidant assay (DPPH)
Type: biochemical
Conditions: 50 μM DPPH in 80% methanol, absorbance at 520 nm, 24 h time point (steady state); read-out: EC50 (concentration at which a compound reduces by 50% the peak absorbance of DPPH at 520 nm)
Description: Nitrone compounds of the present invention were tested for their free-radical scavenging/antioxidant activity in an in vitro assay that is accepted by those skilled in the art as a model for conditions involving the generation of free radicals. The assay is based on a reaction between a free-radical donor, 2,2-diphenyl-1-picrylhydrazyl (DPPH), and a radical scavenger/antioxidant to be tested for free-radical scavenging activity. Upon donation of the free-radical electron to the purported radical scavenger, the peak visible absorbance of DPPH (515-520 nm) decreases so that optical density readings at this part of the visual spectrum reflect the progression of the following reaction: DPPH∩+AH→DPPH-H+A∩ where AH is a hypothetical radical scavenger/antioxidant. The assay is based on a protocol originally detailed in Brand-Williams, W. et al., 1995, Use of a Free Radical Method to Evaluate Antioxidant Activity, Lebensm. Wiss. Technol., 28:25-30, with further modifications described in L. R. Fukumoto and G. Mazza, 2000, Assessing Antioxidant and Prooxidant Activities of Phenolic Compounds, J. Agric. Food Chem., 48:3597-3604.
The antioxidant assay was performed using Perkin-Elmer 96-well, clear-bottom, black-wall plates (ordered from E & K Scientific Products) and a Tecan Safire absorbance plate reader. The positive controls were Trolox (6-hydroxy-2,5,7,8-tetramethylchromane-2-carboxylic acid, Sigma-Aldrich), BHA (2(3)-tert-butylhydroquinone monomethyl ether, Sigma-Aldrich), PBN (C-(phenyl)-N-(tert-butyl)nitrone, Sigma-Aldrich) and S-PBN (C-(2-sulfophenyl)-N-(tert-butyl)nitrone, sodium salt, prepared according to E. G. Janzen and R. V. Shetty, 1979, Tetrahedron Lett., 35: 3229-32), and the negative control (i.e., vehicle) was DMSO. In brief, 2 μL of 100×DMSO stock of the desired final concentration of each control or nitrone compound to be tested in the same batch was added to a separate well. To each well was then added 198 μL of a freshly made 50 μM DPPH (Sigma-Aldrich) solution in 80% methanol using a multi-channel pipette. The absorbance was immediately read on the plate reader at 520 nm and thereafter read periodically to assess kinetics until all reactions reached completion (i.e., steady state). Since the steady-state point was 24 h, the assay results are shown from the 24 h time point. The absorbance at 520 nm (OD) was plotted versus the concentrations of the controls and nitrone compounds to assess dose-response and interpolate the EC50 values of the controls and test compounds.

[O-]/[N+](=C\c1ccccc1-n1ccnc1)C1CCCCC1 [Example 15, N-Cyclohexyl-C-[2-(imidazol-1-yl)phenyl]nitrone]
EC50: > 1000 µM

CCSc1ccccc1/C=[N+](\[O-])C(C)(C)C [Example 33, N-(tert-Butyl)-C-[2-(ethylthio)phenyl]nitrone]
EC50: > 1000 µM

COc1cc(/C=[N+](\[O-])C(C)(C)C)c(C(=O)O)c(OC)c1 [Example 10, N-(tert-Butyl)-C-(2-carboxy-3,5-dimethoxyphenyl)nitrone]
EC50: 500 to 1000 µM

COC(=O)c1c(/C=[N+](\[O-])Cc2ccccc2)cc(OC)cc1OC [Example 6, N-Benzyl-C-[2-(methoxycarbonyl)-3,5-dimethoxyphenyl]nitrone]
EC50: 100 to 500 µM

CC(C)Sc1ccccc1/C=[N+](\[O-])C(C)(C)C [Example 34, N-(tert-Butyl)-C-[2-(isopropylthio)phenyl]nitrone]
EC50: > 1000 µM

CSc1cc(C(F)(F)F)ccc1/C=[N+](\[O-])C(C)(C)C [Example 35, N-(tert-Butyl)-C-[2-(methylthio)-4-(trifluoromethyl)phenyl]nitrone]
EC50: > 1000 µM

O=[N+]([O-])c1ccc(SC2CCCC2)c(/C=[N+](\[O-])C2CCCCC2)c1 [Example 30, N-Cyclohexyl-C-[2-(cyclopentylthio)-5-nitrophenyl]nitrone]
EC50: > 1000 µM

CC(C)(C)/[N+]([O-])=C/c1ccccc1-n1cccn1 [Example 17, N-(tert-Butyl)-C-[2-(pyrazol-1-yl)phenyl]nitrone]
EC50: > 1000 µM

Cc1ccc(Sc2ncccc2/C=[N+](\[O-])C(C)(C)C)cc1 [Example 43, N-(tert-Butyl)-C-[2-(4-methylphenylthio)pyridin-3-yl]nitrone]
EC50: > 1000 µM

CC(C)(C)/[N+]([O-])=C/c1ccccc1-n1ccnc1 [Example 14, N-(tert-Butyl)-C-[2-(imidazol-1-yl)phenyl]nitrone]
EC50: > 1000 µM

CC(C)(C)/[N+]([O-])=C/c1ccccc1N1CCOCC1 [Example 20, N-(tert-Butyl)-C-[2-(1-morpholino)phenyl]nitrone]
EC50: 100 to 500 µM

COC(=O)c1[nH]c2ccccc2c1/C=[N+](\[O-])C(C)(C)C [Example 38, N-(tert-Butyl)-C-[2-(methoxycarbonyl)-1H-indol-3-yl]nitrone]
EC50: > 1000 µM

CSc1ccc(/C=[N+](\[O-])C(C)(C)C)c(SC)c1 [Example 32, N-(tert-Butyl)-C-[2,4-bis(methylthio)phenyl]nitrone]
EC50: > 1000 µM

COC(=O)c1c(/C=[N+](\[O-])C2CCCCC2)cc(OC)cc1OC [Example 5, N-Cyclohexyl-C-[2-(methoxycarbonyl)-3,5-dimethoxyphenyl]nitrone]
EC50: 100 to 500 µM

CC(C)(C)C(=O)Nc1cccc(/C=[N+](\[O-])C2CCCCC2)n1 [Example 52, N-Cyclohexyl-C-[6-(2,2-dimethylpropanamido)pyridin-2-yl]nitrone]
EC50: 500 to 1000 µM

COC(=O)c1[nH]c2ccccc2c1/C=[N+](\[O-])C1CCCCC1 [Example 39, N-Cyclohexyl-C-[2-(methoxycarbonyl)-1H-indol-3-yl]nitrone]
EC50: > 1000 µM

O=[N+]([O-])c1ccc(SC2CCCC2)c(/C=[N+](\[O-])Cc2ccccc2)c1 [Example 31, N-Benzyl-C-[2-(cyclopentylthio)-5-nitrophenyl]nitrone]
EC50: 500 to 1000 µM

COc1cc(/C=[N+](\[O-])C2CCCCC2)c(C(=O)O)c(OC)c1 [Example 11, N-Cyclohexyl-C-(2-carboxy-3,5-dimethoxyphenyl)nitrone]
EC50: 10 to 100 µM

[O-]/[N+](=C\c1ccccc1N1CCN(c2ccc(C(F)(F)F)cn2)CC1)C1CCCCC1 [Example 24, N-Cyclohexyl-C-{2-[4-(5-(trifluoromethyl)pyridin-2-yl)piperazin-1-yl]phenyl}nitrone]
EC50: 10 to 100 µM

2(3)-tert-butylhydroquinone monomethyl ether [BHA, reference compound]
EC50: < 10 µM

CSc1nc2ccccc2cc1/C=[N+](\[O-])C(C)(C)C [Example 49, N-(tert-Butyl)-C-[2-(methylthio)quinolin-3-yl]nitrone]
EC50: 500 to 1000 µM

[O-]/[N+](=C\c1ccccc1N1CCN(c2ccc(C(F)(F)F)cn2)CC1)Cc1ccccc1 [Example 25, N-Benzyl-C-{2-[4-(5-(trifluoromethyl)pyridin-2-yl)piperazin-1-yl]phenyl}nitrone]
EC50: < 10 µM

[O-]/[N+](=C\c1cccnc1N1CCOCC1)Cc1ccccc1 [Example 48, N-Benzyl-C-[2-(1-morpholino)pyridin-3-yl]nitrone]
EC50: > 1000 µM

CC(C)(C)C(=O)Nc1cccc(/C=[N+](\[O-])C(C)(C)C)n1 [Example 51, N-(tert-Butyl)-C-[6-(2,2-dimethylpropanamido)pyridin-2-yl]nitrone]
EC50: > 1000 µM

[O-]/[N+](=C\c1ccccc1Sc1ccc(Cl)cc1)C1CCCCC1 [Example 27, N-Cyclohexyl-C-[2-(4-chlorophenylthio)phenyl]nitrone]
EC50: > 1000 µM

O=C(O)c1ccccc1/C=[N+](\[O-])Cc1ccccc1 [Example 9, N-Benzyl-C-(2-carboxyphenyl)nitrone]
EC50: 10 to 100 µM

O=[N+]([O-])c1ccc(Sc2ccccn2)c(/C=[N+](\[O-])C2CCCCC2)c1 [Example 37, N-Cyclohexyl-C-[5-nitro-2-(pyridin-2-ylthio)phenyl]nitrone]
EC50: 10 to 100 µM

CC(C)(C)[N+]([O-])=Cc1ccccc1 [PBN, C-(phenyl)-N-(tert-butyl)nitrone, reference compound]
EC50: > 1000 µM

[O-]/[N+](=C\c1ccccc1-n1ccnc1)Cc1ccccc1 [Example 16, N-Benzyl-C-[2-(imidazol-1-yl)phenyl]nitrone]
EC50: > 1000 µM

COC(=O)c1c(/C=[N+](\[O-])C(C)(C)C)cc(OC)cc1OC [Example 4, N-(tert-Butyl)-C-[2-(methoxycarbonyl)-3,5-dimethoxyphenyl]nitrone]
EC50: 100 to 500 µM

CC(C)(C)/[N+]([O-])=C/c1ccccc1C(=O)O [Example 7, N-(tert-Butyl)-C-(2-carboxyphenyl)nitrone]
EC50: 100 to 500 µM

Cc1c(C)c2c(c(C)c1O)CCC(C)(C(=O)O)O2 (centres unmarked) [Trolox, 6-hydroxy-2,5,7,8-tetramethylchromane-2-carboxylic acid, reference compound]
EC50: < 10 µM

COc1cc(/C=[N+](\[O-])Cc2ccccc2)c(C(=O)O)c(OC)c1 [Example 12, N-Benzyl-C-(2-carboxy-3,5-dimethoxyphenyl)nitrone]
EC50: 10 to 100 µM

COC(=O)c1ccccc1/C=[N+](\[O-])Cc1ccccc1 [Example 3, N-Benzyl-C-[2-(methoxycarbonyl)phenyl]nitrone]
EC50: 500 to 1000 µM

CC(C)(C)/[N+]([O-])=C/c1ccccc1N1CCN(c2ccc(C(F)(F)F)cn2)CC1 [Example 23, N-(tert-Butyl)-C-{2-[4-(5-(trifluoromethyl)pyridin-2-yl)piperazin-1-yl]phenyl}nitrone]
EC50: 100 to 500 µM

[O-]/[N+](=C\c1ccccc1-n1cccn1)C1CCCCC1 [Example 18, N-Cyclohexyl-C-[2-(pyrazol-1-yl)phenyl]nitrone]
EC50: > 1000 µM

CC(C)(C)/[N+]([O-])=C/c1cccnc1N1CCOCC1 [Example 46, N-(tert-Butyl)-C-[2-(1-morpholino)pyridin-3-yl]nitrone]
EC50: > 1000 µM

[O-]/[N+](=C\c1ccccc1N1CCOCC1)Cc1ccccc1 [Example 22, N-Benzyl-C-[2-(1-morpholino)phenyl]nitrone]
EC50: > 1000 µM

COC(=O)c1[nH]c2ccccc2c1/C=[N+](\[O-])Cc1ccccc1 [Example 40, N-Benzyl-C-[2-(methoxycarbonyl)-1H-indol-3-yl]nitrone]
EC50: > 1000 µM

CC(C)(C)/[N+]([O-])=C/c1cc([N+](=O)[O-])ccc1Sc1ccccn1 [Example 36, N-(tert-Butyl)-C-[5-nitro-2-(pyridin-2-ylthio)phenyl]nitrone]
EC50: 100 to 500 µM

CC(C)(C)/[N+]([O-])=C/c1sccc1C(=O)O [Example 41, N-(tert-Butyl)-C-(3-carboxythiophen-2-yl)nitrone]
EC50: 10 to 100 µM

CC(C)(C)C(=O)Nc1cccc(/C=[N+](\[O-])Cc2ccccc2)n1 [Example 53, N-Benzyl-C-[6-(2,2-dimethylpropanamido)pyridin-2-yl]nitrone]
EC50: 10 to 100 µM

[O-]/[N+](=C\c1cccnc1N1CCOCC1)C1CCCCC1 [Example 47, N-Cyclohexyl-C-[2-(1-morpholino)pyridin-3-yl]nitrone]
EC50: > 1000 µM

[O-]/[N+](=C\c1ccccc1-n1cccn1)Cc1ccccc1 [Example 19, N-Benzyl-C-[2-(pyrazol-1-yl)phenyl]nitrone]
EC50: > 1000 µM

Source: patent US20070275932A1, “Aryl, heteroaromatic and bicyclic aryl nitrone compounds, prodrugs and pharmaceutical compositions of the same to treat human disorders” (Renovis, Inc., priority 2003, published 2007)
